target: T1, AhR (Homo sapiens, UniProt P35869); assay: In Vitro Assay 1: XRE-luciferase reporter assay, antagonism in human cell line (HepG2); settings: Assay 1: AhR-Luc Human Antagonism (IC50, nM), unmarked values: kynurenine 200 μM, 6 hours
T1 sequence (P35869 11-848): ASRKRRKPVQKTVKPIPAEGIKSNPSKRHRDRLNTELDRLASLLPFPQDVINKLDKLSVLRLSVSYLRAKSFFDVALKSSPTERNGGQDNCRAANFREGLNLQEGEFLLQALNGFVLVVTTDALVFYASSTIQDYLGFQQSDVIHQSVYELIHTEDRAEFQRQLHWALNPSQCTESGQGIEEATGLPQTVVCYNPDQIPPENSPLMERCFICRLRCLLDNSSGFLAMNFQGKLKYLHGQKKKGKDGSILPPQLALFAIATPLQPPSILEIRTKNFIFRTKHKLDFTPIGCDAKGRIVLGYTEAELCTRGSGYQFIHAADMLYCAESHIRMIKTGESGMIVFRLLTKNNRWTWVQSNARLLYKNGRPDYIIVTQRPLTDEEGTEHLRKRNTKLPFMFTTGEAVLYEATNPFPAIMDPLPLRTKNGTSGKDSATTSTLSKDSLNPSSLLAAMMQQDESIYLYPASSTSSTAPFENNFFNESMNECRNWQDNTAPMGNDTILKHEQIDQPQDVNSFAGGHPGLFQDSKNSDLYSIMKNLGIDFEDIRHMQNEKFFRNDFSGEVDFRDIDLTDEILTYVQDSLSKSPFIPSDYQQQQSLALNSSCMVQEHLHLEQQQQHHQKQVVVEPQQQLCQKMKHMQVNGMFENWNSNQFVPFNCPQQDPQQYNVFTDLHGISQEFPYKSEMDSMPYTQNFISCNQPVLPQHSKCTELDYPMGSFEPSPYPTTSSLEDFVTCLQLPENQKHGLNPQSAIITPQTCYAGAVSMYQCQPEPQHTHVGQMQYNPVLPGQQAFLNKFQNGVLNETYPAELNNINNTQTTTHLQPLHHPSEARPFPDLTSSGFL

Row | SMILES | IC50
1 | O[C@H]1CCN(c2cc(-c3ccc(F)nc3)nc(-c3cccnc3)n2)C1 [Example 300, (S)-1-(6-(6-fluoropyridin-3-yl)-2-(pyridin-3-yl)pyrimidin-4-yl)pyrrolidin-3-ol] | 100 to 1000 nM
2 | OC1CCCN(c2cc(-c3ccc(Cl)cc3)nc(-c3cccnc3)n2)CC1 (centres unmarked) [Example 330, 1-(6-(4-chlorophenyl)-2-(pyridin-3-yl)pyrimidin-4-yl)azepan-4-ol] | 10 to 100 nM
3 | OC[C@@H]1CCN(c2cc(-c3ccc(Cl)cc3)nc(-c3cccnc3)n2)C[C@H]1O [Example 261, (3S,4S)-1-(6-(4-chlorophenyl)-2-(pyridin-3-yl)pyrimidin-4-yl)-4-(hydroxymethyl)piperidin-3-ol] | < 10 nM
4 | CN(C)CCOc1ccc(-c2cc(N3CC[C@H](O)C3)nc(-c3cccnc3)n2)cc1 [Example 375, (S)-1-(6-(4-(2-(dimethylamino)ethoxy)phenyl)-2-(pyridin-3-yl)pyrimidin-4-yl)pyrrolidin-3-ol] | > 1000 nM
5 | O[C@H]1CN(c2cc(-c3ccc(Cl)cc3)nc(-c3cccnc3)n2)C[C@@H]1O [Example 284, (3S,4S)-1-(6-(4-chlorophenyl)-2-(pyridin-3-yl)pyrimidin-4-yl)pyrrolidine-3,4-diol] | < 10 nM
6 | O=[N+]([O-])c1cc(-c2cc(N3CC[C@H](O)C3)nc(-c3cccnc3)n2)ccc1N1CCOCC1 [Example 297, (S)-1-(6-(4-morpholino-3-nitrophenyl)-2-(pyridin-3-yl)pyrimidin-4-yl)pyrrolidin-3-ol] | > 1000 nM
7 | O=S(=O)(C1CC1)N1CCN(c2cc(-c3ccc(Cl)cc3)nc(-c3cccnc3)n2)CC1 [Example 328, 4-(4-chlorophenyl)-6-(4-(cyclopropylsulfonyl)piperazin-1-yl)-2-(pyridin-3-yl)pyrimidine] | 10 to 100 nM
8 | Cn1nnc(-c2nc(-c3ccc(C(F)(F)F)cc3)cc(N3CC[C@H](O)C3)n2)n1 [Example 333, (S)-1-(2-(2-methyl-2H-tetrazol-5-yl)-6-(4-(trifluoromethyl)phenyl)pyrimidin-4-yl)pyrrolidin-3-ol] | > 1000 nM
9 | OC[C@H]1CCN(c2cc(-c3ccc(Cl)cc3)nc(-c3cccnc3)n2)C1 [Example 240, (S)-(1-(6-(4-chlorophenyl)-2-(pyridin-3-yl)pyrimidin-4-yl)pyrrolidin-3-yl)methanol] | < 10 nM
10 | Oc1cccc(-c2nc(-c3ccc(Cl)cc3)cc(N3CC[C@H](O)C3)n2)c1 [Example 322, (S)-1-(6-(4-chlorophenyl)-2-(3-hydroxyphenyl)pyrimidin-4-yl)pyrrolidin-3-ol] | > 1000 nM

same assay, conditions: Assay 1: AhR-Luc Human Antagonism (IC50, nM), values marked *: kynurenine 50 μM, 6 hours

Row | SMILES | IC50
11 | Clc1ccc(-c2cc(N[C@@H]3CCNC3)nc(-c3cccnc3)n2)cc1 [Example 127, (R)-6-(4-chlorophenyl)-2-(pyridin-3-yl)-N-(pyrrolidin-3-yl)pyrimidin-4-amine] | > 1000 nM
12 | CC(Nc1cc(-c2ccc(Cl)cc2)nc(-c2cccnc2)n1)C1CCN(C)CC1 (centres unmarked) [Example 169, 6-(4-chlorophenyl)-N-(1-(1-methylpiperidin-4-yl)ethyl)-2-(pyridin-3-yl)pyrimidin-4-amine] | > 1000 nM
13 | Clc1ccc(-c2cc(NCC3CC3)nc(-c3cccnc3)n2)cc1 [Example 25, 6-(4-chlorophenyl)-N-(cyclopropylmethyl)-2-(pyridin-3-yl)pyrimidin-4-amine] | > 1000 nM
14 | OC1(c2cccc(C(F)(F)F)c2)CCN(c2cc(-c3ccc(Cl)cc3)nc(-c3cccnc3)n2)CC1 [Example 151, 1-(6-(4-chlorophenyl)-2-(pyridin-3-yl)pyrimidin-4-yl)-4-(3-(trifluoromethyl)phenyl)piperidin-4-ol] | > 1000 nM
15 | CC1CCCN(c2cc(-c3ccc(Cl)cc3)nc(-c3cccnc3)n2)C1 (centres unmarked) [Example 48, 4-(4-chlorophenyl)-6-(3-methylpiperidin-1-yl)-2-(pyridin-3-yl)pyrimidine] | > 1000 nM
16 | NC[C@@H]1CCCN(c2cc(-c3ccc(Cl)cc3)nc(-c3cccnc3)n2)C1 [Example 63, (S)-(1-(6-(4-chlorophenyl)-2-(pyridin-3-yl)pyrimidin-4-yl)piperidin-3-yl)methanamine] | > 1000 nM
17 | Cn1cc(-c2nc(-c3ccc(Cl)cc3)cc(N3CC[C@@H](O)C3)n2)cn1 [Example 186, (R)-1-(6-(4-chlorophenyl)-2-(1-methyl-1H-pyrazol-4-yl)pyrimidin-4-yl)pyrrolidin-3-ol] | > 1000 nM
18 | O=[N+]([O-])c1ccc(N2CCN(c3cc(-c4ccc(Cl)cc4)nc(-c4cccnc4)n3)CC2)cc1 [Example 121, 4-(4-chlorophenyl)-6-(4-(4-nitrophenyl)piperazin-1-yl)-2-(pyridin-3-yl)pyrimidine] | > 1000 nM

Second part, the molecule after the results:

Row | IC50 | SMILES
19 | > 1000 nM | CCC1CN(c2cc(-c3ccc(Cl)cc3)nc(-c3cccnc3)n2)CCN1 (centres unmarked) [Example 109, 4-(4-chlorophenyl)-6-(3-ethylpiperazin-1-yl)-2-(pyridin-3-yl)pyrimidine]
20 | 100 to 1000 nM | Clc1ccc(-c2cc(N[C@@H]3CCCNC3)nc(-c3cccnc3)n2)cc1 [Example 203, (R)-6-(4-chlorophenyl)-N-(piperidin-3-yl)-2-(pyridin-3-yl)pyrimidin-4-amine]
21 | < 10 nM | O[C@@H]1CN(c2cc(-c3ccc(Cl)cc3)nc(-c3cccnc3)n2)C[C@H]1F [Example 234, (3R,4R)-1-(6-(4-chlorophenyl)-2-(pyridin-3-yl)pyrimidin-4-yl)-4-fluoropyrrolidin-3-ol]
22 | 100 to 1000 nM | Cn1cc(-c2nc(-c3ccc(Cl)cc3)cc(N3CCC(C#N)CC3)n2)cn1 [Example 184, 1-(6-(4-chlorophenyl)-2-(1-methyl-1H-pyrazol-4-yl)pyrimidin-4-yl)piperidine-4-carbonitrile]
23 | > 1000 nM | CCOC(=O)CC1CCN(c2cc(-c3ccc(Cl)cc3)nc(-c3cccnc3)n2)CC1 [Example 161, ethyl 2-(1-(6-(4-chlorophenyl)-2-(pyridin-3-yl)pyrimidin-4-yl)piperidin-4-yl)acetate]
24 | > 1000 nM | Clc1ccc(-c2cc(NCCN3CCCC3)nc(-c3cccnc3)n2)cc1 [Example 129, 6-(4-chlorophenyl)-2-(pyridin-3-yl)-N-(2-(pyrrolidin-1-yl)ethyl)pyrimidin-4-amine]
25 | > 1000 nM | COC(=O)[C@H]1C[C@@H](Nc2cc(-c3ccc(Cl)cc3)nc(-c3cccnc3)n2)CN1 [Example 207, methyl (2R,4R)-4-((6-(4-chlorophenyl)-2-(pyridin-3-yl)pyrimidin-4-yl)amino)pyrrolidine-2-carboxylate]
26 | > 1000 nM | Clc1ccc(-c2cc(N3CCC(N4CCOCC4)C3)nc(-c3cccnc3)n2)cc1 (centres unmarked) [Example 73, 4-(1-(6-(4-chlorophenyl)-2-(pyridin-3-yl)pyrimidin-4-yl)pyrrolidin-3-yl)morpholine]
27 | > 1000 nM | C[C@@H]1CNCCN1c1cc(-c2ccc(Cl)cc2)nc(-c2cccnc2)n1 [Example 76, (R)-4-(4-chlorophenyl)-6-(2-methylpiperazin-1-yl)-2-(pyridin-3-yl)pyrimidine]
28 | 100 to 1000 nM | C[C@@H](CO)Nc1cc(-c2ccc(Cl)cc2)nc(-c2cccnc2)n1 [Example 2, (S)-2-((6-(4-chlorophenyl)-2-(pyridin-3-yl)pyrimidin-4-yl)amino)propan-1-ol]
29 | < 10 nM | COc1ccc(N2CCN(c3cc(-c4ccc(Cl)cc4)nc(-c4cccnc4)n3)CC2)cc1 [Example 120, 4-(4-chlorophenyl)-6-(4-(4-methoxyphenyl)piperazin-1-yl)-2-(pyridin-3-yl)pyrimidine]
30 | 10 to 100 nM | Clc1ccc(-c2cc(N3CCN(CCc4ccccc4)CC3)nc(-c3cccnc3)n2)cc1 [Example 87, 4-(4-chlorophenyl)-6-(4-phenethylpiperazin-1-yl)-2-(pyridin-3-yl)pyrimidine]
31 | 100 to 1000 nM | Clc1ccc(-c2cc(NCC3CCNCC3)nc(-c3cccnc3)n2)cc1 [Example 56, 6-(4-chlorophenyl)-N-(piperidin-4-ylmethyl)-2-(pyridin-3-yl)pyrimidin-4-amine]
32 | 100 to 1000 nM | Clc1ccc(-c2cc(NCc3cccnc3)nc(-c3cccnc3)n2)cc1 [Example 32, 6-(4-chlorophenyl)-2-(pyridin-3-yl)-N-(pyridin-3-ylmethyl)pyrimidin-4-amine]
33 | 100 to 1000 nM | FC(F)(F)c1cccc(N2CCN(c3cc(-c4ccc(Cl)cc4)nc(-c4cccnc4)n3)CC2)c1 [Example 117, 4-(4-chlorophenyl)-2-(pyridin-3-yl)-6-(4-(3-(trifluoromethyl)phenyl)piperazin-1-yl)pyrimidine]
34 | 10 to 100 nM | CC[C@@H](O)CNc1cc(-c2ccc(Cl)cc2)nc(-c2cccnc2)n1 [Example 213, (R)-1-((6-(4-chlorophenyl)-2-(pyridin-3-yl)pyrimidin-4-yl)amino)butan-2-ol]
35 | 100 to 1000 nM | Cn1cc(-c2nc(-c3ccc(Cl)cc3)cc(N3CCC[C@@H](CO)C3)n2)cn1 [Example 185, (R)-(1-(6-(4-chlorophenyl)-2-(1-methyl-1H-pyrazol-4-yl)pyrimidin-4-yl)piperidin-3-yl)methanol]
